Results taken from ChEMBL document CHEMBL4725221, “Thiazoles, Their Benzofused Systems, and Thiazolidinone Derivatives: Versatile and Promising Tools to Combat Antibiotic Resistance” (J Med Chem, 2020).
≈ marks a conversion by molar mass, not a printed value.

Assays:
Staphylococcus aureus [1] = assay: Antibacterial activity against Staphylococcus aureus MTCC 121 after 7 days by two-fold serial dilution method; assay type: functional; conditions: MTCC 121, 168 h, time 7 day
Pseudomonas aeruginosa [2] = assay: Antibacterial activity against Pseudomonas aeruginosa MTCC 2453 after 7 days by two-fold serial dilution method; assay type: functional; conditions: MTCC 2453, 168 h, time 7 day
Bacillus subtilis [3] = assay: Antibacterial activity against Bacillus subtilis […] after 7 days by two-fold serial dilution method; assay type: functional; conditions: 168 h, time 7 day
Escherichia coli [4] = assay: Antibacterial activity against Escherichia coli MTCC 40 after 7 days by two-fold serial dilution method; assay type: functional; conditions: MTCC 40, 168 h, time 7 day
Listeria monocytogenes = assay: Antibacterial activity against Listeria monocytogenes ATCC 19115 after 24 hrs by CLSI protocol based cup-plate agar diffusion method; assay type: functional
Staphylococcus aureus [5] = assay: Antibacterial activity against Staphylococcus aureus ATCC 49444 after 24 hrs by CLSI protocol based cup-plate agar diffusion method; assay type: functional
Pseudomonas aeruginosa [6] = assay: Antibacterial activity against Pseudomonas aeruginosa ATCC 27853 after 24 hrs by CLSI protocol based cup-plate agar diffusion method; assay type: functional
Salmonella typhimurium = assay: Antibacterial activity against Salmonella typhimurium ATCC 14028 after 24 hrs by CLSI protocol based cup-plate agar diffusion method; assay type: functional, Salmonella enterica subsp. enterica serovar Typhimurium; conditions: Salmonella enterica
Escherichia coli [7] = assay: Antibacterial activity against Escherichia coli; assay type: functional
Raoultella planticola = assay: Antibacterial activity against Klebsiella planticola; assay type: functional
Bacillus subtilis [8] = assay: Antibacterial activity against Bacillus subtilis; assay type: functional
Staphylococcus aureus [9] = assay: Antibacterial activity against Staphylococcus aureus MLS16; assay type: functional
Micrococcus luteus = assay: Antibacterial activity against Micrococcus luteus; assay type: functional
Staphylococcus aureus [10] = assay: Antibacterial activity against Staphylococcus aureus; assay type: functional
Pseudomonas aeruginosa [11] = assay: Antibacterial activity against Pseudomonas aeruginosa; assay type: functional
Staphylococcus aureus [12] = assay: Antibacterial activity against Staphylococcus aureus ATCC 6538 by CLSI protocol based microdilution method; assay type: functional, organism-based
Staphylococcus aureus [13] = assay: Antibacterial activity against Staphylococcus aureus ATCC 25923 by CLSI protocol based microdilution method; assay type: functional, organism-based
Escherichia coli [14] = assay: Antibacterial activity against Escherichia coli AG102; assay type: functional
Escherichia coli [15] = assay: Antibacterial activity against Escherichia coli AG102 in presence of ciprofloxacin; assay type: functional
Enterococcus faecalis [16] = assay: Antibiofilm activity against Enterococcus faecalis; assay type: functional
Enterococcus faecalis [17] = assay: Antibacterial activity against Enterococcus faecalis; assay type: functional

## O=C(NN1C(=O)/C(=C/c2ccccc2)SC1c1cccc(Br)c1)c1ccc(-c2ccccc2)cc1 (configuration not stated)
Staphylococcus aureus [1]
  MIC: 3.12 mg/L (≈ 5.76 µM)
Pseudomonas aeruginosa [2]
  MIC: 3.12 mg/L (≈ 5.76 µM)
Bacillus subtilis [3]
  MIC: 3.12 mg/L (≈ 5.76 µM)
Escherichia coli [4]
  MIC: 6.25 mg/L (≈ 11.5 µM)

## COc1cccc(/C=C2\SC(c3ccccc3)N(NC(=O)c3ccc(-c4ccccc4)cc3)C2=O)c1 (configuration not stated)
Staphylococcus aureus [1]
  MIC: 6.25 mg/L (≈ 12.7 µM)
Pseudomonas aeruginosa [2]
  MIC: 6.25 mg/L (≈ 12.7 µM)
Bacillus subtilis [3]
  MIC: 1.56 mg/L (≈ 3.17 µM)
Escherichia coli [4]
  MIC: 6.25 mg/L (≈ 12.7 µM)

## Cc1nc(-c2ccccc2)sc1-c1nnc(S)n1/N=C\c1ccc(F)cc1
Listeria monocytogenes
  MIC: 1.9 mg/L (≈ 4.8 µM)
Staphylococcus aureus [5]
  MIC: 31.2 mg/L (≈ 78.9 µM)
Pseudomonas aeruginosa [6]
  MIC: 1.9 mg/L (≈ 4.8 µM)
Salmonella typhimurium
  MIC: 62.5 mg/L (≈ 158 µM)

## O=c1oc2ccccc2cc1-c1nn(-c2nc3ccccc3s2)cc1/C=N/Nc1nc(-c2ccc(Br)cc2)cs1
Escherichia coli [7]
  MIC: 7.8 mg/L (≈ 12.5 µM)
Raoultella planticola
  MIC: 7.8 mg/L (≈ 12.5 µM)
Bacillus subtilis [8]
  MIC: 3.9 mg/L (≈ 6.23 µM)
Staphylococcus aureus [9]
  MIC: 7.8 mg/L (≈ 12.5 µM)
Micrococcus luteus
  MIC: 7.8 mg/L (≈ 12.5 µM)
Staphylococcus aureus [10]
  MIC: 7.8 mg/L (≈ 12.5 µM)
Pseudomonas aeruginosa [11]
  MIC: > 125 mg/L

## COCCn1cc(-c2nc(-c3cn(C)c4ccccc34)cs2)c2cc(F)ccc21
Staphylococcus aureus [12]
  IC50: 21 mg/L (≈ 51.8 µM)
Staphylococcus aureus [13]
  IC50: 0.2 mg/L (≈ 0.493 µM)

## O=C(Nc1ccc(-c2nc3ccccc3s2)cc1)c1ccccc1
Escherichia coli [14]
  MIC: 256 mg/L (≈ 775 µM)
Escherichia coli [15]
  MIC: 0.03 mg/L

## O=C(Nc1ccc(Cc2nc3ccccc3s2)cc1)c1ccc(F)cc1
Escherichia coli [14]
  MIC: 128 mg/L (≈ 353 µM)
Escherichia coli [15]
  MIC: 0.03 mg/L

## COc1ccc(CC(=O)Nc2ccc(-c3nc4ccccc4s3)cc2)cc1
Escherichia coli [14]
  MIC: 256 mg/L (≈ 684 µM)
Escherichia coli [15]
  MIC: 0.008 mg/L

## O=C(Nc1ccc(Cc2nc3ccccc3s2)cc1)c1ccc([N+](=O)[O-])cc1
Escherichia coli [14]
  MIC: 128 mg/L (≈ 329 µM)
Escherichia coli [15]
  MIC: 0.06 mg/L

## COc1cccc(/C=N\n2c(S)nnc2-c2sc(-c3ccccc3)nc2C)c1
Listeria monocytogenes
  MIC: 1.9 mg/L (≈ 4.66 µM)
Staphylococcus aureus [5]
  MIC: 31.2 mg/L (≈ 76.6 µM)
Pseudomonas aeruginosa [6]
  MIC: 1.9 mg/L (≈ 4.66 µM)
Salmonella typhimurium
  MIC: 31.2 mg/L (≈ 76.6 µM)

## O=C(NN1C(=O)/C(=C/c2ccccc2)SC1c1ccccc1)c1ccc(-c2ccccc2)cc1 (configuration not stated)
Staphylococcus aureus [1]
  MIC: 6.25 mg/L (≈ 13.5 µM)
Pseudomonas aeruginosa [2]
  MIC: 6.25 mg/L (≈ 13.5 µM)
Bacillus subtilis [3]
  MIC: 3.12 mg/L (≈ 6.74 µM)
Escherichia coli [4]
  MIC: 6.25 mg/L (≈ 13.5 µM)

## O=C(NN1C(=O)/C(=C/c2ccc(Cl)cc2)SC1c1ccccc1)c1ccc(-c2ccccc2)cc1 (configuration not stated)
Staphylococcus aureus [1]
  MIC: 3.12 mg/L (≈ 6.28 µM)
Pseudomonas aeruginosa [2]
  MIC: 12.5 mg/L (≈ 25.1 µM)
Bacillus subtilis [3]
  MIC: 6.25 mg/L (≈ 12.6 µM)
Escherichia coli [4]
  MIC: 3.12 mg/L (≈ 6.28 µM)

## O=C(NN1C(=O)/C(=C/c2cccc(Br)c2)SC1c1cccc(Br)c1)c1ccc(-c2ccccc2)cc1 (configuration not stated)
Staphylococcus aureus [1]
  MIC: 3.12 mg/L (≈ 5.03 µM)
Pseudomonas aeruginosa [2]
  MIC: 6.25 mg/L (≈ 10.1 µM)
Bacillus subtilis [3]
  MIC: 3.12 mg/L (≈ 5.03 µM)
Escherichia coli [4]
  MIC: 6.25 mg/L (≈ 10.1 µM)

## O=C(NN1C(=O)/C(=C/c2cccc([N+](=O)[O-])c2)SC1c1cccc(Br)c1)c1ccc(-c2ccccc2)cc1 (configuration not stated)
Staphylococcus aureus [1]
  MIC: 1.56 mg/L (≈ 2.66 µM)
Pseudomonas aeruginosa [2]
  MIC: 1.56 mg/L (≈ 2.66 µM)
Bacillus subtilis [3]
  MIC: 1.56 mg/L (≈ 2.66 µM)
Escherichia coli [4]
  MIC: 3.12 mg/L (≈ 5.32 µM)

## O=C(Cc1ccc(F)cc1)Nc1ccc(-c2nc3ccccc3s2)cc1
Escherichia coli [14]
  MIC: 128 mg/L (≈ 353 µM)
Escherichia coli [15]
  MIC: 0.03 mg/L

## CCN(CC)c1ccc(/C=N\n2c(S)nnc2-c2sc(-c3ccccc3)nc2C)cc1
Listeria monocytogenes
  MIC: 1.9 mg/L (≈ 4.24 µM)
Staphylococcus aureus [5]
  MIC: 31.2 mg/L (≈ 69.5 µM)
Pseudomonas aeruginosa [6]
  MIC: 1.9 mg/L (≈ 4.24 µM)
Salmonella typhimurium
  MIC: 62.5 mg/L (≈ 139 µM)

## Cc1ccc(CC(=O)Nc2ccc(-c3nc4ccccc4s3)cc2)cc1
Escherichia coli [14]
  MIC: 512 mg/L (≈ 1430 µM)
Escherichia coli [15]
  MIC: 0.004 mg/L

## O=c1oc2ccccc2cc1-c1nn(-c2nc3ccccc3s2)cc1/C=N/Nc1nc(-c2ccc(-c3ccccc3)cc2)cs1
Escherichia coli [7]
  MIC: 7.8 mg/L (≈ 12.5 µM)
Raoultella planticola
  MIC: 31.2 mg/L (≈ 50.1 µM)
Bacillus subtilis [8]
  MIC: 7.8 mg/L (≈ 12.5 µM)
Staphylococcus aureus [9]
  MIC: 7.8 mg/L (≈ 12.5 µM)
Micrococcus luteus
  MIC: 7.8 mg/L (≈ 12.5 µM)
Staphylococcus aureus [10]
  MIC: 7.8 mg/L (≈ 12.5 µM)
Pseudomonas aeruginosa [11]
  MIC: 7.8 mg/L (≈ 12.5 µM)

## CCc1ccc(C(=O)Nc2ccc(-c3nc4ccccc4s3)cc2)cc1
Escherichia coli [14]
  MIC: 128 mg/L (≈ 357 µM)
Escherichia coli [15]
  MIC: 0.016 mg/L

## O=C(CCCCc1ccccc1)Nc1ccc(-c2nc3ccccc3s2)cc1
Escherichia coli [14]
  MIC: 512 mg/L (≈ 1320 µM)
Escherichia coli [15]
  MIC: 0.004 mg/L

## O=C(Cc1ccccc1)Nc1ccc(-c2nc3ccccc3s2)cc1
Escherichia coli [14]
  MIC: 256 mg/L (≈ 743 µM)
Escherichia coli [15]
  MIC: 0.125 mg/L

## NC(=O)c1cc(-c2csc(-c3cccc(-c4csc(-c5ccccc5)n4)c3)n2)ccc1O
Enterococcus faecalis [16]
  MBIC: 0.008 mg/mL
Enterococcus faecalis [17]
  MIC: 250 mg/L (≈ 549 µM)
